Test results reported in ChEMBL document CHEMBL1909046, “DrugMatrix in vitro pharmacology data”.

How the values were obtained:
[1] = molecular target: Platelet-activating factor receptor (Homo sapiens, UniProt P25105); assay type: tissue-based; also: in other assays of this panel Not Active means under 50% inhibition at 10 µM
[2] = molecular target: Aldo-keto reductase family 1 member B1 (Rattus norvegicus, UniProt P07943); experiment: biochemical; assay type: tissue-based, Lens of camera-type eye;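 also: inhibition of aldose reductase enzyme activity, measured with DL-glyceraldehyde as the substrate; in other assays of this panel Not Active means under 50% inhibition at 10 µM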
[3] = DRUGMATRIX: ATPase, Na+/K+ enzyme inhibition (substrate: ATP); assay type: tissue-based, Sus scrofa, Heart; conditions: Not Active = under 50% inhibition at 10 µM
[4] = molecular target: T1, Alpha-2C adrenergic receptor (Homo sapiens, UniProt P18825); experiment: DRUGMATRIX: Adrenergic Alpha-2C radioligand binding (ligand: [3H] MK-912); assay type: cell membranes, Sf9, Membrane
T1 sequence (P18825 whole entry): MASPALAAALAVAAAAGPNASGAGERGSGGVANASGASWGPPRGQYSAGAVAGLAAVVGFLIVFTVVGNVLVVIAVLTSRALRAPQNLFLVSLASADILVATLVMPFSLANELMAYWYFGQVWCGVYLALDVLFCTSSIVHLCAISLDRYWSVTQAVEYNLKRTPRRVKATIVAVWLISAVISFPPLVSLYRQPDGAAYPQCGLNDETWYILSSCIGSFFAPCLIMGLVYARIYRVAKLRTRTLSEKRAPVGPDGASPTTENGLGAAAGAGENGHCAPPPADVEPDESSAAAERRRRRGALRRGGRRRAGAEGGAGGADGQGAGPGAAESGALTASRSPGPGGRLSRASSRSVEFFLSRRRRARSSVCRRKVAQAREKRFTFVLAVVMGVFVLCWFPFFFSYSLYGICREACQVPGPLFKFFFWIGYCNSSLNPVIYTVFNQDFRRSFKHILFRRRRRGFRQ

[5] = molecular target: T2, C-C chemokine receptor type 4 (Homo sapiens, UniProt P51679); assay type: cell membranes, Chem-1, Membrane; conditions: chem-1; also: in other assays of this panel Not Active means under 50% inhibition at 10 µM
T2 sequence (P51679 whole entry): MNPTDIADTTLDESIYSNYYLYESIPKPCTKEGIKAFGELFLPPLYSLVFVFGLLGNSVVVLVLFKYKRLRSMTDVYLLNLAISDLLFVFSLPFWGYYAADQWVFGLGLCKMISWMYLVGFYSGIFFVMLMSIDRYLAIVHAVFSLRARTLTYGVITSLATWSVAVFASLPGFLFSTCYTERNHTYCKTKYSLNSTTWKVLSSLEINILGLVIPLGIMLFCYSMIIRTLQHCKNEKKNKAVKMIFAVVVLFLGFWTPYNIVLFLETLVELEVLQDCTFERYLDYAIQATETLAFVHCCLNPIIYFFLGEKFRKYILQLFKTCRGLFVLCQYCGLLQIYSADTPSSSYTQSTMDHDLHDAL

[6] = molecular target: Vascular endothelial growth factor receptor 1 (Homo sapiens, UniProt P17948); assay type: cell-based; conditions: huvec; also: in other assays of this panel Not Active means under 50% inhibition at 10 µM
D(4) dopamine receptor = molecular target: T3, D(4) dopamine receptor (Homo sapiens, UniProt P21917); experiment: DRUGMATRIX: Dopamine D4.2 radioligand binding (ligand: [3H] Spiperone); assay type: cell membranes, CHO-K1, Membrane; conditions: cho-k1; Not Active = under 50% inhibition at 10 µM
T3 sequence (P21917 whole entry): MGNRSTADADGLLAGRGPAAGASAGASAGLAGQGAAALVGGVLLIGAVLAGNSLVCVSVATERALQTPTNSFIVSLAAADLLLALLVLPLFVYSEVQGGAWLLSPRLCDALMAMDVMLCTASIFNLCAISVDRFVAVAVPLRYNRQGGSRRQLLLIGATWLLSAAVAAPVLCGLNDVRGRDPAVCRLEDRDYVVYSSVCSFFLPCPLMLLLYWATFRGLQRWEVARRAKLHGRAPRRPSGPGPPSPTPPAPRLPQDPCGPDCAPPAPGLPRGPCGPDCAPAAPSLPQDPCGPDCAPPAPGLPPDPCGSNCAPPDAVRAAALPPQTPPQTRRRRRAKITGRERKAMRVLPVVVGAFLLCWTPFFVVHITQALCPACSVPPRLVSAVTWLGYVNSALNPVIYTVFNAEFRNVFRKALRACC

[7] = molecular target: T4, C-X-C chemokine receptor type 2 (Homo sapiens, UniProt P25025); assay type: cell membranes, CHO-K1, Membrane; conditions: cho-k1; also: in other assays of this panel Not Active means under 50% inhibition at 10 µM
T4 sequence (P25025 whole entry): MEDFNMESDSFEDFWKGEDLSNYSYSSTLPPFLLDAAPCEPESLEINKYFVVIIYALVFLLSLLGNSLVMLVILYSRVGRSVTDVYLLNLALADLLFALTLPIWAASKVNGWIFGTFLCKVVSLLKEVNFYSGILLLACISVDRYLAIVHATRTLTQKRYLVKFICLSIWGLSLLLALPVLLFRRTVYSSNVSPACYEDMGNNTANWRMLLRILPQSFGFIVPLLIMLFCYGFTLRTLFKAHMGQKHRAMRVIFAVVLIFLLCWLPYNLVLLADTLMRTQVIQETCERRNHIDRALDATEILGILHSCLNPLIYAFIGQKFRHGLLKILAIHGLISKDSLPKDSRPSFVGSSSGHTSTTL

Chain of Vascular endothelial growth factor receptor 1 (P17948 whole entry): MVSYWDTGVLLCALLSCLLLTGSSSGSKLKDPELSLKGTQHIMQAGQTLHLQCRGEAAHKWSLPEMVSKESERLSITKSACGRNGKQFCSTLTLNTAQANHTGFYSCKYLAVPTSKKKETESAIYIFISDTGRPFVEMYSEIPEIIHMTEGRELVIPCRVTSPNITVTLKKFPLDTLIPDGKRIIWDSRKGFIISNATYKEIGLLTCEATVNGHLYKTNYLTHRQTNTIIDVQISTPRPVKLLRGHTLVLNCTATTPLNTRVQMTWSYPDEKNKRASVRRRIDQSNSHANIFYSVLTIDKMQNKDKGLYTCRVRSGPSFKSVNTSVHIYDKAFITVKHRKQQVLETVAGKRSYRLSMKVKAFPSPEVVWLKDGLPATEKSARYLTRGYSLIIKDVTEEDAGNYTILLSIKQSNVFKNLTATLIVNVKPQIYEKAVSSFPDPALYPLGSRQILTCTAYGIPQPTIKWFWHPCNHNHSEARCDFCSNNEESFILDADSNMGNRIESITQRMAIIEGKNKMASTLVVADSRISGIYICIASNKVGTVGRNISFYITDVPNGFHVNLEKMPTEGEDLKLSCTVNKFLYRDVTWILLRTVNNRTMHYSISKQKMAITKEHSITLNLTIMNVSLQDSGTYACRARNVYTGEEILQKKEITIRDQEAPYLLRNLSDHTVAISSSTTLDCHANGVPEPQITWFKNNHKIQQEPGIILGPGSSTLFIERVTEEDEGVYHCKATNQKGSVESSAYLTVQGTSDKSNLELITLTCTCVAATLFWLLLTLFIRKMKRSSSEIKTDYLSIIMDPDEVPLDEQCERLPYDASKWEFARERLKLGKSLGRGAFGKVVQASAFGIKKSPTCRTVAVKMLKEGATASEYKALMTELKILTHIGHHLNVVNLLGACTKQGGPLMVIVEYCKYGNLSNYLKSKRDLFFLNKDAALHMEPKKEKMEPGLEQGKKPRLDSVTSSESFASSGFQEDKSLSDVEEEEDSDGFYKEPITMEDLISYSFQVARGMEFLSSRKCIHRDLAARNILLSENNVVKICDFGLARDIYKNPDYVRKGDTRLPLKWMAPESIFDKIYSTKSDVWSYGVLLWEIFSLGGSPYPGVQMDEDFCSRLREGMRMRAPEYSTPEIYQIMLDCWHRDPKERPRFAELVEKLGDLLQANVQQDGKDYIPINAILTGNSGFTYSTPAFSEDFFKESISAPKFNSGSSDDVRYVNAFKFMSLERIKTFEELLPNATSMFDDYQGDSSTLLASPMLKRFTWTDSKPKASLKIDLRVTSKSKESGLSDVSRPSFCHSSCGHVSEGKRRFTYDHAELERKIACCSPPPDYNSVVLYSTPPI
Chain of Platelet-activating factor receptor (P25105 whole entry): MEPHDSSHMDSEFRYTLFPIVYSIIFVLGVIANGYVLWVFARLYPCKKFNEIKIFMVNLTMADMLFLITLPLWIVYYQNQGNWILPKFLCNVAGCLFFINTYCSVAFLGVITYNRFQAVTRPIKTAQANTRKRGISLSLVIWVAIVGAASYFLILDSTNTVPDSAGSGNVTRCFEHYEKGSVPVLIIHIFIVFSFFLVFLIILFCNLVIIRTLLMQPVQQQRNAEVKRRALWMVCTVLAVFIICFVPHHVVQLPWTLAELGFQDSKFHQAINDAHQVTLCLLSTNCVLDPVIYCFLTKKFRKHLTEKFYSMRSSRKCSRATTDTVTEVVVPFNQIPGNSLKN

| Compound | IC50 [1] | IC50 [2] | IC50 [3] | Ki [3] | IC50 ([4]; sf9) | IC50 [5] | IC50 [6] | IC50 (D(4) dopamine receptor) | IC50 [7] | IC50 ([4]; read-out: IC50) [µM] | Ki ([4]; read-out: Ki) [nM] |
| --- | --- | --- | --- | --- | --- | --- | --- | --- | --- | --- | --- |
| Oc1ccccc1 [PHENOL] | Not Active | Not Active | Not Active | Not Active | Not Active | Not Active | Not Active | Not Active | Not Active | – | – |
| Oc1ncnc2[nH]ncc12 [ALLOPURINOL] | Not Active | Not Active | Not Active | Not Active | Not Active | Not Active | Not Active | Not Active | Not Active | – | – |
| COC(=O)Nc1nc2ccc(Sc3ccccc3)cc2[nH]1 [FENBENDAZOLE] | Not Active | Not Active | Not Active | Not Active | Not Active | Not Active | Not Active | Not Active | Not Active | – | – |
| C[C@@H]1[C@H](O)[C@@H](C)/C=C/C=C/C=C/C=C/C=C/C=C/C=C/[C@H](O[C@@H]2O[C@H](C)[C@@H](O)[C@H](N)[C@@H]2O)C[C@@H]2O[C@](O)(C[C@@H](O)C[C@@H](O)[C@H](O)CC[C@@H](O)C[C@@H](O)CC(=O)O[C@H]1C)C[C@H](O)[C@H]2C(=O)O [AMPHOTERICIN B] | Not Active | Not Active | Not Active | Not Active | Not Active | Not Active | Not Active | Not Active | Not Active | – | – |
| CCO [ALCOHOL] | Not Active | Not Active | Not Active | Not Active | Not Active | Not Active | Not Active | Not Active | Not Active | – | – |
| COc1cc(/C=C/C(=O)O)ccc1O [FERULATE] | Not Active | Not Active | Not Active | Not Active | Not Active | Not Active | Not Active | Not Active | Not Active | – | – |
| CNC[C@H](O)c1ccc(O)c(O)c1 [EPINEPHRINE] | Not Active | Not Active | Not Active | Not Active | – | Not Active | Not Active | Not Active | Not Active | – | – |
| CC1(COc2ccc(CC3SC(=O)NC3=O)cc2)CCCCC1 (configuration not stated) [CIGLITAZONE] | Not Active | Not Active | Not Active | Not Active | Not Active | Not Active | Not Active | Not Active | Not Active | – | – |
| NC(N)=Nc1nc(CSCCC(N)=NS(N)(=O)=O)cs1 [FAMOTIDINE] | Not Active | Not Active | Not Active | Not Active | Not Active | Not Active | Not Active | Not Active | Not Active | – | – |
| Nc1nc(F)nc2c1ncn2[C@@H]1O[C@H](CO)[C@@H](O)[C@@H]1O [FLUDARABINE] | Not Active | Not Active | Not Active | Not Active | Not Active | Not Active | Not Active | Not Active | Not Active | – | – |
| NC(=O)NC(=O)Cc1ccccc1 [PHENACEMIDE] | Not Active | Not Active | Not Active | Not Active | Not Active | Not Active | Not Active | Not Active | Not Active | – | – |
| Nc1ccc(C(=O)O)c(O)c1 [AMINOSALICYLIC ACID] | Not Active | Not Active | Not Active | Not Active | Not Active | Not Active | Not Active | Not Active | Not Active | – | – |
| O=c1[nH]cnc2c1ncn2[C@H]1CC[C@@H](CO)O1 [DIDANOSINE] | Not Active | Not Active | Not Active | Not Active | Not Active | Not Active | Not Active | Not Active | Not Active | – | – |
| NC(=O)CN1CCCC1=O | Not Active | Not Active | Not Active | Not Active | Not Active | Not Active | Not Active | Not Active | Not Active | – | – |
| Clc1cc(Cl)c(OCC#CI)cc1Cl [HALOPROGIN] | Not Active | Not Active | Not Active | Not Active | – | Not Active | Not Active | Not Active | Not Active | 4.04 | 588 |
| O=C(NCCN1CCOCC1)c1ccc(Cl)cc1 [MOCLOBEMIDE] | Not Active | Not Active | Not Active | Not Active | Not Active | Not Active | Not Active | Not Active | Not Active | – | – |
| Cc1c(N)nc([C@H](CC(N)=O)NC[C@H](N)C(N)=O)nc1C(=O)N[C@H](C(=O)N[C@H](C)[C@@H](O)[C@H](C)C(=O)N[C@H](C(=O)NCCc1nc(-c2nc(C(=O)NCCC[S+](C)C)cs2)cs1)[C@@H](C)O)[C@@H](O[C@@H]1O[C@@H](CO)[C@@H](O)[C@H](O)[C@@H]1O[C@H]1O[C@H](CO)[C@@H](O)[C@H](OC(N)=O)[C@@H]1O)c1c[nH]cn1.[Br-] [BLEOMYCIN A2] | Not Active | Not Active | Not Active | Not Active | Not Active | Not Active | Not Active | Not Active | Not Active | – | – |
| CC(C)Cc1ccc([C@H](C)C(=O)O)cc1 [DEXIBUPROFEN] | Not Active | Not Active | Not Active | Not Active | Not Active | Not Active | Not Active | Not Active | Not Active | – | – |
| COc1ccc(C[C@H](N)C(=O)N[C@H]2[C@@H](O)[C@H](n3cnc4c(N(C)C)ncnc43)O[C@@H]2CO)cc1 [PUROMYCIN] | Not Active | Not Active | Not Active | Not Active | Not Active | Not Active | Not Active | Not Active | Not Active | – | – |
| CCC1(c2ccccc2)C(=O)NC(=O)NC1=O [PHENOBARBITAL] | Not Active | Not Active | Not Active | Not Active | Not Active | Not Active | Not Active | Not Active | Not Active | – | – |
| O=C1c2ccccc2C(=O)C1c1ccccc1 [PHENINDIONE] | Not Active | Not Active | Not Active | Not Active | Not Active | Not Active | Not Active | Not Active | Not Active | – | – |
| Cc1cc(C(C)(C)C)c(O)c(C)c1CC1=NCCN1 [OXYMETAZOLINE] | Not Active | Not Active | Not Active | Not Active | – | Not Active | Not Active | Not Active | Not Active | – | – |
